Measurements published in patent US5939405A, “Phosphate derivatives of diaryl 1,3,4-oxadiazolone” (priority 1999, dated 1999).

Legend:
[1] = tested on: cloned mammalian (mSlo or hSlo) BK channels; assay: BK-mediated outward current in Xenopus oocytes, two-electrode voltage clamp; type: cell-based; conditions: 1 μM; at least 5 oocytes; mSlo or hSlo expressed in Xenopus oocytes
Method: (§1) The ability of the compound of Example 1 to open BK channels and increase whole-cell outward (K^+) BK-mediated currents was assessed under voltage-clamp conditions by determining their ability to increase cloned mammalian (mSlo or hSlo) BK-mediated outward current heterologously expressed in Xenopus oocytes [Butler, A., et al., Science, 261, pp. 221-224 (1993); and Dworetzky, S. I., et al., Mol. Brain Res., 27, pp.189-193 (1994)]. The two BK constructs employed represent nearly structurally identical homologous proteins, and have proven to be pharmacologically identical in our tests. To isolate BK current from native (background, non-BK) current, the specific and potent BK channel-blocking toxin iberiotoxin (IBTX) [Galvez, A., et al., J. Biol. Chem,265, pp. 11083-11090 (1990)] was employed at a supramaximal concentration (50 nM). The relative contribution of BK channels current to total outward current was determined by subtraction of the current remaining in the presence of IBTX (non-BK current) from the current profiles obtained in all other experimental conditions (control, drug, and wash). […]

[2] = tested on: non-BK native currents in the oocytes; assay: non-BK (IBTX-insensitive) native current in oocytes, voltage clamp; type: cell-based, Xenopus; conditions: at the tested concentration; current remaining in presence of 50 nM IBTX
Method: as §1

cortical infarct volume = assay: focal stroke model, permanent MCA and CCA occlusion; type: in vivo; conditions: 10 μg/kg intravenously, single bolus two hours after MCAO; Wistar rat; infarct measured 24 hours after MCAO; vs vehicle-treated (water) control
Method: To determine the ability of the compounds of the present invention to reduce cell loss resulting from neuronal ischemia, a standard focal cerebral ischemia is induced by permanent occlusion of the left middle cerebral artery (MCA) and common carotid artery (CCA) with one hour occlusion of the right CCA in the Wistar rat. The surgeries are performed using the sub-temporal approach of A. Tamura, et al., J. Cereb. Blood Flow Metab., 1, pp. 53-60, (1981) and its modifications [K. Osborne, et al., J. Neurol Neurosurg. Psychiatry, 50, pp. 402-410 (1987) and S. Menzies, et al., Neurosurgery, 31, pp. 100-107, (1992).]
The compound of Example 1 was evaluated in the focal stroke model involving permanent occlusion of the left MCA (MCAO) and CCA (CCAO) and temporary occlusion of the right CCA in the Wistar rat. This procedure results in a reliably large neocortical infarct volume that is measured by means of vital dye exclusion in serial slices through the brain 24 hours after MCAO. In the present test, compounds were administered using an i.v. or i.p. route of administration two hours after occlusion.

[3] = rapid screen of prodrug hydrolysis and drug release in plasma; type: in vitro ADME; conditions: 10 ug/mL in fresh rat plasma at 37° C.; stock 1 mg/mL in PEG-400; analysis 5 minutes after incubation; HPLC
Method: A rapid screen to determine the ability of prodrugs to hydrolyze and release the drug (compound of Example 1) is conducted as follows. A 1 mg/mL stock solution of the prodrug is prepared in distilled water or acetonitrile or PEG-400. Plasma from freshly collected rat or human blood is used in this assay. To 1 mL of plasma at 37° C. was added 10 μL of stock solution of prodrug and mixed gently. Immediately after the mixing, 100 μL of plasma was removed and quenched with 300 μL of acetontrile (Zero time sample). Samples were also obtained at 30 minutes and quenched immediately. The quenched samples were centrifuged to obtain a clear supernatant for analysis. The stock solution, T=0 and T=30 samples were analyzed by a HPLC assay that separates the drug from the prodrug. Based on the relative peak areas of prodrug and drug in these samples, different prodrugs are characterized as fast, moderate and slow release agents. For example, in this model, the compound of Example 6 was dissolved in PEG-400 at a concentration of 1 mg/mL and incubated at 10 ug/mL in fresh rat plasma at 37° C.

Row | Structure (SMILES) | BK current, % of control of IBTX-sensitive current [1] | effect on non-BK native currents in the oocytes [2] | reduction of cortical infarct volume (cortical infarct volume) | conversion of prodrug to the drug (compound of Example 1) [3]
1 | O=c1oc(-c2ccc(C(F)(F)F)cc2)nn1Cc1cc(Cl)ccc1O [Example 1, 3-[(5-Chloro-2-hydroxyphenyl)methyl]-5-[4-(trifluoromethyl)phenyl]-1,3,4-oxadiazol-2(3H)-one] | 126 % of control | did not effect non-BK native currents | about 18% | –
2 | O=C(COP(=O)(O)O)Oc1ccc(Cl)cc1Cn1nc(-c2ccc(C(F)(F)F)cc2)oc1=O [Example 6, 3-[[5-Chloro-2-[[[(phosphonooxy)methyl]carbonyl]oxy]phenyl]methyl]-5-[4-(trifluoromethyl)phenyl]-1,3,4-oxadiazol-2(3H)-one] | – | – | – | conversion of the compound of Example 6 to the compound of Example 1
